In patent US20240246940A1, “HETEROARYL DERIVATIVE COMPOUND AND USE THEREOF” (VORONOI INC., priority 2021, published 2024):
Where two headings read alike, the source gives them in different places.

Columns and labels:
[1] = system: HaCaT cells (EGFR expressing cell line); assay: HaCaT cell proliferation inhibitory activity (CellTiter-Glo, 72 hours); type: cell-based
Summary of the method: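 GI50 derived from % growth versus control from CellTiter-Glo luminescence, each test run three times. SK-BR-3 and BT-474 are seeded 48 h ahead at 5000/well and dosed at 0.2 nM–10 μM. N-87 (5000/well) gets […]–5 μM and HaCaT (3000/well) gets 0.8 nM–45 μM, both seeded 24 h ahead.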

[2] = system: BT-474 cells (HER2 overexpressing cell line); assay: BT-474 cell proliferation inhibitory activity (CellTiter-Glo, 120 hours); type: cell-based
Protocol: To evaluate the cell proliferation inhibitory activity of the compound according to the present invention on HER2 and EGFR kinases, the following method was performed using HER2 overexpressing cell lines (SK-BR-3, BT-474, and N-87) and EGFR expressing cell line (HaCaT).
McCOY'S 5A supplemented with 10% FBS was used for SK-BR-3 cells, RPMI-1640 medium supplemented with 20% FBS was used for BT-474 cancer cells, and RPMI-1640 medium supplemented with 10% FBS was used for N-87 cancer cells. DMEM supplemented with 10% FBS was used for HaCaT cells.
For SK-BR-3 cells, 5000 cells were aliquoted into each well of a white clear bottom 96 well plate (Corning) 48 hours before treatment with the compounds of Examples. For BT-474 cells, 5000 cells were aliquoted into each well of a white clear bottom 96 well plate (Corning) 48 hours before treatment with the compounds of Examples. For N-87 cells, 5000 cells were aliquoted into each well of a white clear bottom 96 well plate (Corning) 24 hours before treatment with the compounds of Examples. For HaCaT cells, 3000 cells were aliquoted into each well of a white clear bottom 96 well plate (Corning) 24 hours before treatment with the compounds of Examples. For SK-BR-3 cells and BT-474 cells, the compounds of Examples were diluted in dimethyl sulfoxide (three-fold dilution, a total of 11 concentrations) and injected each in an amount of 1 μl to a final concentration of 0.2 nM to 10 μM. For N-87 cells, the compounds of Examples were diluted in dimethyl sulfoxide (five-fold dilution, a total of 11 concentrations) and injected each in an amount of 0.5 μl to a final concentration of […] to 5 μM. For HaCaT cells, the compounds of Examples were diluted in dimethyl sulfoxide (three-fold dilution, a total of 11 concentrations) and injected each in an amount of 0.5 μl to a final concentration of 0.8 nM to 45 μM. For the measurement of living cells, the cells were stored at room temperature for 10 minutes using CellTiter-Glo cell viability reagent (Promega) after a certain period of time (SK-BR-3: 120 hours, BT-474: 120 hours, N-87: 72 hours, and HaCaT: 72 hours) post treatment with the compounds of Examples, and the luminescence intensity thereof was measured using a reader (SynergyNeo, Biotek). Each test was repeated three times.
The result values were calculated as a cell growth rate (%) compared to those of the control group. A graph was created using the GraphPad Prism version 5.0 program, and GI50 values were calculated.

| GI50 ([2]; Homo sapiens) | GI50 [2] | Structure (SMILES) | GI50 ([1]; Homo sapiens) | GI50 [1] |
| --- | --- | --- | --- | --- |
| 150 to 1000 nM |  | C=CC(=O)N1CCC2(CC1)CN(c1cc3c(Nc4cc(-c5ccc(F)cc5F)ccc4OC)ncnc3cc1OC)C2 [Example 325, 1-(2-(4-((2′,4′-difluoro-4-methoxy-[1,1′-biphenyl]-3-yl)amino)-7-methoxyquinazolin-6-yl)-2,7-diazaspiro[3.5]nonan-7-yl)prop-2-en-1-one] | 150 to 1000 nM |  |
| 150 to 1000 nM |  | COc1ccc(-c2ccc(F)cc2F)cc1Nc1ncnc2ccc(NC(=O)/C=C/CN(C)C)c(Cl)c12 [Example 320, (E)-N-(5-chloro-4-((2′,4′-difluoro-4-methoxy-[1,1′-biphenyl]-3-yl)amino)quinazolin-6-yl)-4-(dimethylamino)but-2-enamide] | 150 to 1000 nM |  |
|  | ≤ 150 nM | C=CC(=O)N1CCC(F)(F)C(Oc2cc(OC)cc3ncnc(Nc4cc(-c5ccc(F)cc5F)ccc4OC)c23)C1 (stereo not drawn) [Example 100, 1-(3-((4-((2′,4′-difluoro-4-methoxy-[1,1′-biphenyl]-3-yl)amino)-7-methoxy-quinazolin-5-yl)oxy)-4,4-difluoro-piperidin-1-yl)prop-2-en-1-one] |  | ≤ 150 nM |
| ≤ 150 nM |  | C=CC(=O)N1CCC(Oc2cc3c(Nc4cc(-c5ccc(F)c(F)c5F)ccc4OC)ncnc3cc2OC)CC1 [Example 203, 1-(4-((7-methoxy-4-((2′,3′,4′-trifluoro-4-methoxy-[1,1′-biphenyl]-3-yl)amino)quinazolin-6-yl)oxy)piperidin-1-yl)prop-2-en-1-one] | 150 to 1000 nM |  |
| 150 to 1000 nM |  | COc1ccc(-c2ccc(F)cc2F)cc1Nc1ncnc2cc(OC)c(OC3CCN(C(=O)C(F)Cl)CC3)cc12 (stereo not drawn) [Example 187, 2-chloro-1-(4-((4-((2′,4′-difluoro-4-methoxy-[1,1′-biphenyl]-3-yl)amino)-7-methoxy-quinazolin-6-yl)oxy)piperidin-1-yl)-2-fluoroethan-1-one] | ≤ 150 nM |  |
| ≤ 150 nM |  | C=CC(=O)N1CCC(Oc2cc(OC)cc3ncnc(Nc4cc(-c5ccco5)ccc4OC)c23)C(F)(F)C1 (stereo not drawn) [Example 195, 1-(3,3-difluoro-4-((4-((5-(furan-2-yl)-2-methoxyphenyl)amino)-7-methoxy-quinazolin-5-yl)oxy)piperidin-1-yl)prop-2-en-1-one] | ≤ 150 nM |  |
| ≤ 150 nM |  | C=CC(=O)N1CCC(Oc2cc3c(Nc4cc(-c5ccc(F)c(OC)c5F)ccc4OC)ncnc3cc2OC)CC1 [Example 210, 1-(4-((4-((2′,4′-difluoro-3′,4-dimethoxy-[1,1′-biphenyl]-3-yl)amino)-7-methoxy-quinazolin-6-yl)oxy)piperidin-1-yl)prop-2-en-1-one] | 150 to 1000 nM |  |
| ≤ 150 nM |  | C=CC(=O)N1CCC(Oc2cc3c(Nc4cc(-c5cccc(C(=O)OC)c5)ccc4OC)ncnc3cc2OC)CC1 [Example 204, methyl 3′-((6-((1-acryloyl-piperidin-4-yl)oxy)-7-methoxy-quinazolin-4-yl)amino)-4′-methoxy-[1,1-biphenyl]-3-carboxylate] | 150 to 1000 nM |  |
| ≤ 150 nM |  | C=CC(=O)N1CCC(Oc2cc3c(Nc4c(OC)ccc(-c5ccco5)c4F)ncnc3cc2OC)CC1 [Example 185, 1-(4-((4-((2-fluoro-3-(furan-2-yl)-6-methoxyphenyl)amino)-7-methoxy-quinazolin-6-yl)oxy)piperidin-1-yl)prop-2-en-1-one] | ≤ 150 nM |  |
| 150 to 1000 nM |  | C=CC(=O)Nc1cccc(-c2ccc(OC)c(Nc3ncnc4cc(OC)c(OC5CCN(C(=O)C=C)CC5)cc34)c2)c1 [Example 208, N-(3′-((6-((1-acryloyl-piperidin-4-yl)oxy)-7-methoxy-quinazolin-4-yl)amino)-4′-methoxy-[1,1′-biphenyl]-3-yl)acrylamide] | > 1000 nM |  |
| 150 to 1000 nM |  | C=CC(=O)N1CCC(Oc2cc3c(Nc4cc(-c5cccc(SC)c5)ccc4OC)ncnc3cc2OC)CC1 [Example 205, 1-(4-((7-methoxy-4-((4-methoxy-3′-(methylthio)-[1,1′-biphenyl]-3-yl)amino)quinazolin-6-yl)oxy)piperidin-1-yl)prop-2-en-1-one] | > 1000 nM |  |
| ≤ 150 nM |  | C=CC(=O)N1CCC(Oc2cc3c(Nc4cc(-c5cc(OC)c(F)cc5F)ccc4OC)ncnc3cc2OC)CC1 [Example 213, 1-(4-((4-((2′,4′-difluoro-4,5′-dimethoxy-[1,1′-biphenyl]-3-yl)amino)-7-methoxy-quinazolin-6-yl)oxy)piperidin-1-yl)prop-2-en-1-one] | ≤ 150 nM |  |
| ≤ 150 nM |  | C=CC(=O)N1CCC(Oc2cc3c(Nc4cc(-c5cccc(OC(F)(F)F)c5)ccc4OC)ncnc3cc2OC)CC1 [Example 211, 1-(4-((7-methoxy-4-((4-methoxy-3′-(trifluoro-methoxy)-[1,1′-biphenyl]-3-yl)amino)quinazolin-6-yl)oxy)piperidin-1-yl)prop-2-en-1-one] | 150 to 1000 nM |  |
| 150 to 1000 nM |  | C=CC(=O)N1CCC2(CC(Oc3cc4c(Nc5cc(-c6ccco6)ccc5OC)ncnc4cc3OC)C2)C1 (stereo not drawn) [Example 220, 1-(2-((4-((5-(furan-2-yl)-2-methoxyphenyl)amino)-7-methoxy-quinazolin-6-yl)oxy)-6-azaspiro[3.4]octan-6-yl)prop-2-en-1-one] | 150 to 1000 nM |  |
| 150 to 1000 nM |  | C=CC(=O)N1CCC(Oc2cc3c(Nc4cc(-c5ccc(C#N)o5)ccc4OC)ncnc3cc2OC)CC1 [Example 183, 5-(3-((6-((1-acryloyl-piperidin-4-yl)oxy)-7-methoxy-quinazolin-4-yl)amino)-4-methoxyphenyl) furan-2-carbonitrile] | 150 to 1000 nM |  |
| ≤ 150 nM |  | COc1cc2ncnc(Nc3cc(-c4ccco4)ccc3OC)c2cc1NC(=O)/C(F)=C\[C@@H]1CCCN1C [Example 309, (S,E)-2-fluoro-N-(4-((5-(furan-2-yl)-2-methoxyphenyl)amino)-7-methoxyquinazolin-6-yl)-3-(1-methylpyrrolidin-2-yl)acrylamide] | ≤ 150 nM |  |
| ≤ 150 nM |  | COc1cc2ncnc(Nc3cc(-c4ccc(F)cc4F)c(F)cc3OC)c2cc1NC(=O)/C=C/[C@H]1CCCN1C [Example 308, (R,E)-N-(7-methoxy-4-((2′,4′,6-trifluoro-4-methoxy-[1,1′-biphenyl]-3-yl)amino)quinazolin-6-yl)-3-(1-methylpyrrolidin-2-yl)acrylamide] | ≤ 150 nM |  |
| ≤ 150 nM |  | COc1cc2ncnc(Nc3cc(-c4ccc(F)cc4F)ccc3OC)c2cc1NC(=O)/C=C/CN1CCOCC1 [Example 316, (E)-N-(4-((2′,4′-difluoro-4-methoxy-[1,1′-biphenyl]-3-yl)amino)-7-methoxyquinazolin-6-yl)-4-morpholinobut-2-enamide] | ≤ 150 nM |  |
| 150 to 1000 nM |  | C=CC(=O)N1CC[C@H](Oc2cc3c(Nc4cc(-c5ccc(F)cc5F)ccc4OC)ncnc3cc2OC)[C@@H](F)C1 [Example 152, 1-((3S,4S)-4-((4-((2′,4′-difluoro-4-methoxy-[1,1′-biphenyl]-3-yl)amino)-7-methoxy-quinazolin-6-yl)oxy)3-fluoropiperidin-1-yl)prop-2-en-1-one] | 150 to 1000 nM |  |

| Structure (SMILES) | GI50 ([2]; Homo sapiens) | GI50 [2] | GI50 ([1]; Homo sapiens) | GI50 [1] |
| --- | --- | --- | --- | --- |
| COc1cc2ncnc(Nc3cc(-c4ccc(F)cc4F)ccc3OC)c2cc1NC(=O)/C=C/CN1C2COCC1C2 [Example 319] | ≤ 150 nM |  | ≤ 150 nM |  |
| COc1cc2ncnc(Nc3cc(-c4ccco4)ccc3OC)c2cc1NC(=O)/C=C/CN1C2COCC1C2 [Example 318, (E)-4-(3-oxa-6-azabicyclo[3.1.1]heptan-6-yl)-N-(4-((5-(furan-2-yl)-2-methoxyphenyl)amino)-7-methoxyquinazolin-6-yl)but-2-enamide] | ≤ 150 nM |  | ≤ 150 nM |  |
